Patent US9657351B2, “MRNA-based gene expression for personalizing patient cancer therapy with an MDM2 antagonist” (Hoffmann-La Roche Inc., priority 2013, dated 2017)

Key:
KMS-12-BM = experiment: COMPOUND A In Vitro Assay; format: cell-based, human; settings: TP53 mutant cell line
Source text: (§1) To generate an MDM2 antagonist therapy predictive signature, the response of MDM2 antagonist therapy in vitro with gene expression profiling (FIG. 1) is combined. A bank of 287 human cancer cell lines, collectively termed the Cell Lines for Oncology/Chugai ACcumulative Tumour EncycLopedia (CELLO/CACTEL), representing a broad array of diverse human cancer tumor types are subject to evaluation using several high-throughput genomic technology platforms. The mutational status of nucleic acids from each cell line is determined by exome sequencing. Messenger RNA (mRNA) expression levels at baseline, prior to MDM2 antagonist therapy, are obtained via RNA sequencing. MDM2 antagonist therapy COMPOUND A, sometimes referred to herein as RG7112, responses are obtained by assays known to those skilled in the art such as RNA sequencing and microarray measurement using Gene Chip Human Genome U133 Plus 2.0 Array. The MDM2 therapy responses are obtained by high throughout screening assays. Depending on their responses to COMPOUND A these cell lines are classified as either sensitive, defined as IC50<=1, or resistant, defined as IC50>=10.
(§2) 281 cells are treated with MDM2 antagonists and the IC50 (therapy response) is generated. The cell lines span a broad range of tumor cell types of derivation.

NCI-H2122 = experiment: COMPOUND A In Vitro Assay; format: cell-based, human; settings: for IC50: Homo sapiens
Source text: as §1, §2

COLO 205 = experiment: COMPOUND A In Vitro Assay; format: cell-based; settings: Homo sapiens, Intestine, large, colon, TP53 Mutant
Source text: as §1, §2

Calu-1 = experiment: COMPOUND A In Vitro Assay; format: cell-based; settings: Homo sapiens, Lung, TP53 Wild type
Source text: as §1, §2

Calu-6 = experiment: COMPOUND A In Vitro Assay; format: cell-based; settings: Homo sapiens, Lung, TP53 Mutant
Source text: as §1, §2

HCC366 = experiment: COMPOUND A In Vitro Assay; format: cell-based; settings: Homo sapiens, Lung, TP53 Mutant
Source text: as §1, §2

HCT-15 = experiment: COMPOUND A In Vitro Assay; format: cell-based; settings: Homo sapiens, Intestine, large, colon, TP53 Mutant
Source text: as §1, §2

Hs 578T = experiment: COMPOUND A In Vitro Assay; format: cell-based; settings: Homo sapiens, Breast, mammary gland, TP53 Mutant
Source text: as §1, §2

IM-9 = experiment: COMPOUND A In Vitro Assay; format: cell-based; settings: Homo sapiens
Source text: as §1, §2

IMR-32 = experiment: COMPOUND A In Vitro Assay; format: cell-based; settings: Homo sapiens
Source text: as §1, §2

KATO-III = experiment: COMPOUND A In Vitro Assay; format: cell-based; settings: Homo sapiens, Stomach, TP53 Mutant
Source text: as §1, §2

KHM-1B = experiment: COMPOUND A In Vitro Assay; format: cell-based; settings: Homo sapiens, Lymphocyte, TP53 Wild type
Source text: as §1, §2

MCF7 = experiment: COMPOUND A In Vitro Assay; format: cell-based; settings: Homo sapiens
Source text: as §1, §2

MOLM-13 = experiment: COMPOUND A In Vitro Assay; format: cell-based; settings: Homo sapiens
Source text: as §1, §2

NCI-H2030 = experiment: COMPOUND A In Vitro Assay; format: cell-based; settings: Homo sapiens, Lung, TP53 Mutant
Source text: as §1, §2

NCI-H23 = experiment: COMPOUND A In Vitro Assay; format: cell-based; settings: Homo sapiens, Lung, TP53 NA
Source text: as §1, §2

NCI-H358 = experiment: COMPOUND A In Vitro Assay; format: cell-based; settings: Homo sapiens, Lung, bronchi, TP53 Mutant
Source text: as §1, §2

NCI-H526 = experiment: COMPOUND A In Vitro Assay; format: cell-based; settings: Homo sapiens, Lung, TP53 Mutant
Source text: as §1, §2

NCI-H716 = experiment: COMPOUND A In Vitro Assay; format: cell-based; settings: Homo sapiens, Intestine, large, caecum, TP53 Mutant
Source text: as §1, §2

NUGC-4 = experiment: COMPOUND A In Vitro Assay; format: cell-based; settings: Homo sapiens
Source text: as §1, §2

PANC-1 = experiment: COMPOUND A In Vitro Assay; format: cell-based; settings: Homo sapiens, Pancreas, TP53 Mutant
Source text: as §1, §2

PC-6 = experiment: COMPOUND A In Vitro Assay; format: cell-based; settings: Homo sapiens, Lung, TP53 Wild type
Source text: as §1, §2

SJCRH30 = experiment: COMPOUND A In Vitro Assay; format: cell-based; settings: Homo sapiens, Muscle, TP53 Mutant
Source text: as §1, §2

SK-N-AS = experiment: COMPOUND A In Vitro Assay; format: cell-based; settings: Homo sapiens, Brain, TP53 Mutant
Source text: as §1, §2

SUM-44PE = experiment: COMPOUND A In Vitro Assay; format: cell-based; settings: Homo sapiens, Breast, TP53 Wild type
Source text: as §1, §2

SW837 = experiment: COMPOUND A In Vitro Assay; format: cell-based; settings: Homo sapiens, Intestine, large, rectum, TP53 Mutant
Source text: as §1, §2

U-118 MG = experiment: COMPOUND A In Vitro Assay; format: cell-based; settings: Homo sapiens, Brain, TP53 Mutant
Source text: as §1, §2

U-937 = experiment: COMPOUND A In Vitro Assay; format: cell-based; settings: Homo sapiens, Pleura, TP53 Mutant
Source text: as §1, §2

U266B1 = experiment: COMPOUND A In Vitro Assay; format: cell-based; settings: Homo sapiens
Source text: as §1, §2

ZR-75-1 = experiment: COMPOUND A In Vitro Assay; format: cell-based; settings: Homo sapiens
Source text: as §1, §2

MDM2 mRNA = experiment: NP21280 solid tumor trial, tumor biopsy biomarker (MDM2 mRNA); format: in vivo, human; settings: at C1D10, p=1.03×10−5
P21 = settings: NP22890; at C1D8; as previously reported; cited from earlier work
clinical = settings: both, human, in vivo, AUC0-24, median

Question: With CCOc1cc(C(C)(C)C)ccc1C1=N[C@@](C)(c2ccc(Cl)cc2)[C@@](C)(c2ccc(Cl)cc2)N1C(=O)N1CCN(CCCS(C)(=O)=O)CC1 [COMPOUND A] as the compound, how does the “response to COMPOUND A (sensitive / resistant)” value (KMS-12-BM) read?
Answer: sensitive (sensitive, defined as IC50<=1)

Question: What about the IC50 (NCI-H2122; NCI-H2122, NCI-H2122, Lung, TP53 Mutant) of the same compound?
Answer: 0.16 µM

Question: And the IC50 (NCI-H2122; NCI-H2122, NCI-H2122 cells)?
Answer: 0.2 µM

Question: What about the “response to COMPOUND A (sensitive / resistant)” value (NCI-H2122; NCI-H2122, TP53 mutant cell line) of the same compound?
Answer: sensitive (sensitive, defined as IC50<=1)

Question: What about the IC50 (COLO 205) of the same compound?
Answer: 9.1 µM

Question: What about the IC50 (Calu-1) of the same compound?
Answer: 14 µM

Question: And the IC50 (Calu-6)?
Answer: 17 µM

Question: And the IC50 (HCC366)?
Answer: 8.7 µM

Question: What about the IC50 (HCT-15) of the same compound?
Answer: 7.6 µM

Question: And the IC50 (Hs 578T)?
Answer: 8.8 µM

Question: What about the IC50 (IM-9; IM-9, IM-9, Lymphocyte B, peripheral blood, TP53 Wild type) of the same compound?
Answer: 0.14 µM

Question: What about the IC50 (IM-9; IM-9, IM-9 cells) of the same compound?
Answer: 0.1 µM

Question: What about the IC50 (IMR-32; IMR-32, IMR-32, Brain, TP53 Wild type) of the same compound?
Answer: 0.43 µM

Question: What about the IC50 (IMR-32; IMR-32, IMR-32 cells) of the same compound?
Answer: 0.4 µM

Question: And the IC50 (KATO-III)?
Answer: 9.7 µM

Question: What about the IC50 (KHM-1B) of the same compound?
Answer: 6.9 µM

Question: And the IC50 (MCF7; MCF7, MCF7, Breast, mammary gland, TP53 Wild type)?
Answer: 0.75 µM

Question: What about the IC50 (MCF7; MCF7, MCF7 cells) of the same compound?
Answer: 0.8 µM

Question: What about the IC50 (MOLM-13; MOLM-13, MOLM-13, Blood, TP53 Wild type) of the same compound?
Answer: 0.19 µM

Question: And the IC50 (MOLM-13; MOLM-13, MOLM-13 cells)?
Answer: 0.2 µM

Question: What about the IC50 (NCI-H2030) of the same compound?
Answer: 9.2 µM

Question: And the IC50 (NCI-H23)?
Answer: 10 µM

Question: And the IC50 (NCI-H358)?
Answer: 8.1 µM

Question: What about the IC50 (NCI-H526) of the same compound?
Answer: 16 µM

Question: What about the IC50 (NCI-H716) of the same compound?
Answer: 13 µM

Question: What about the IC50 (NUGC-4; NUGC-4, NUGC-4, Stomach, TP53 Wild type) of the same compound?
Answer: 0.38 µM

Question: And the IC50 (NUGC-4; NUGC-4, NUGC-4 cells)?
Answer: 0.4 µM

Question: What about the IC50 (PANC-1) of the same compound?
Answer: 22 µM

Question: What about the IC50 (PC-6) of the same compound?
Answer: 8.2 µM

Question: What about the IC50 (SJCRH30) of the same compound?
Answer: 16 µM

Question: What about the IC50 (SK-N-AS) of the same compound?
Answer: 13 µM

Question: And the IC50 (SUM-44PE)?
Answer: 3 µM

Question: What about the IC50 (SW837) of the same compound?
Answer: 12 µM

Question: What about the IC50 (U-118 MG) of the same compound?
Answer: 19 µM

Question: What about the IC50 (U-937) of the same compound?
Answer: 5.2 µM

Question: And the IC50 (U266B1; U266B1, Lymphocyte B, TP53 Mutant)?
Answer: 18 µM

Question: And the IC50 (U266B1; U266B1 cells)?
Answer: 18 µM

Question: And the IC50 (ZR-75-1; ZR-75-1, ZR-75-1, Breast, mammary gland, TP53 Wild type)?
Answer: 0.076 µM

Question: What about the IC50 (ZR-75-1; ZR-75-1, ZR-75-1 cells) of the same compound?
Answer: 0.1 µM

Question: And the “MDM2 mRNA expression change from baseline” value (MDM2 mRNA)?
Answer: significantly increase

Question: What about the “P21 concentration change from baseline” value (P21) of the same compound?
Answer: significantly increase

Question: What about the AUC(0-t) (clinical) of the same compound?
Answer: 190 µg·h/mL
